Results on two molecules are retold here after patent publication US6875872B1, “Compounds” (AstraZeneca, priority 1993, dated 2005).

Data set [1] can be described thus: Racemization experiment in aqueous phosphate buffer pH 11 warmed at 37° C. It is filed as physicochemical. The conditions noted are these: aqueous phosphate buffer solution pH=11, c=10^-5 M, 26 hours at 37° C.
A short description of data set [2]: Stability towards racemization at different pH values (aqueous buffer solutions, refrigerator, optical purity by chiral column chromatography). It is filed as physicochemical. The note with it: for racemization (stereochemical stability): after 16 days. As for the experimental part: Stability Towards Racemization at Different pH Values
The stability of the optically pure compounds of the invention against racemization has been measured at low concentrations in a refrigerator in aqueous buffer solutions at pH 8, 9.3, 10 and 11.2. The stereochemical stability was measured by comparing the optical purity for the (−)-isomer of 5-methoxy-2-[[(4-methoxy-3,5-dimethyl-2-pyridinyl)-methyl]sulfinyl]-1H-benzimidazole in buffer solution immediately after dissolving and after several days. The measurement was performed by chromatography on an analytical chiral column.

For `COc1ccc2[nH]c([S+]([O-])Cc3ncc(C)c(OC)c3C)nc2c1.[Na+]` (single isomer, unassigned; (+)) [(+)-5-methoxy-2-[[(4-methoxy-3,5-dimethyl-2-pyridinyl)methyl]sulfinyl]-1H-benzimidazole sodium salt], in data set [1], the racemization result is given as “without any racemization at all being observed”.
Take `COc1ccc2[nH]c([S+]([O-])Cc3ncc(C)c(OC)c3C)nc2c1` (single isomer, unassigned; (-)) [(−)-5-methoxy-2-[[(4-methoxy-3,5-dimethyl-2-pyridinyl)methyl]-sulfinyl]-1H-benzimidazole]: the “racemization (stereochemical stability)” value in data set [2] (aqueous buffer solution pH 8, refrigerator) is “at none of these pH values a detectable racemization was obtained”; in data set [2] (aqueous buffer solution pH 9.3, refrigerator) it was “at none of these pH values a detectable racemization was obtained”; in data set [2] (aqueous buffer solution pH 10, refrigerator), “at none of these pH values a detectable racemization was obtained”. Further, the “racemization (stereochemical stability, optical purity immediately after dissolving vs after several days)” value in data set [2] (aqueous buffer solution pH 11.2, refrigerator, low concentration, after 21 days) is on record as “no racemization”. Besides, the “chemical degradation of the compound” value in data set [2] (aqueous buffer solutions pH 8, 9.3 and 10, refrigerator (compared with pH 11.2)) is listed as “more apparent”.
